The values below come from patent US20080261821A1, “Mechanism-Based Crosslinkers” (THE REGENTS OF TE UNIVERSITY OF CALIFORNIA, priority 2004, published 2008).

The star is where a group is joined. Biotin = O=C1N[C@H]2[C@H](CS[C@H]2CCCCC(=O)*)N1; Ahx = NCCCCCC(=O)O

The target of assay [1] is T1, AKT kinase (Homo sapiens, UniProt P31749).
T1 construct: host or cells: added to HeLa cell lysate
Description: Kinase cell lysate crosslinking (avidin-agarose pull-down, anti-AKT blot). Type of assay: biochemical. As to conditions: 100 ng AKT kinase, 2 μg HeLa cell lysate; for anti-AKT signal after avidin-agarose pull-down of the biotinylated substrate: 1 μM substrate, 100 μM crosslinker 2, 90 minutes. As for the experimental part:
Kinase cell lysate crosslinking details: 1 μM of Akt substrate (Biotin-PEG-RPRTSCF-OH) and 100 ng of AKT kinase was added to 2 μg of HeLa cell lysate. 100 μM of the crosslinker 2 was added to cell lysate and the reaction was allowed to proceed for 90 minutes. The lysate were poured over avidin-agarose beads and the beads were washed with wash buffer. The bound protein was eluted from the agarose beads with loading buffer and then subjected to SDS-PAGE. The gel was transferred to nitrocellulose and probed with anti-AKT. […] As a control, the non-cysteine containing AKT substrate (Biotin-PEG-RPRTSSF-OH) was used in the crosslinking reaction described above. No signal was observed.

The target of assay [2] is T2, His 6-tagged human Akt1 (Homo sapiens, UniProt P31749).
T2 construct: purchased Calbiochem
Nature of the assay: Crosslinking reactions with AKT1 (SDS-PAGE, streptavidin-HRP blot). Type of assay: biochemical. As to conditions: for crosslinking of peptide to AKT1 (formation of the peptide-AKT1 complex): peptide incubated with AKT1 in the presence of dialdehyde crosslinker 2, FIG. 2A. How it is done:
His 6-tagged human Akt1 (10 ng), 1 μM peptide 3 or 4, and 20 µM crosslinker 2 were incubated in 30 μL of 25 mM HEPES (pH=7.5), 150 mM NaCl, 2 mM MgCl2, 20 μM BME for 20 min at rt. After 20 min, 6 μL of 6× loading buffer was added to quench the reactions. The sample mixtures (10 μL) were resolved by 8-16% SDS-PAGE, transferred to nitrocellulose, and the membrane was probed with streptavidin-HRP.
To evaluate dialdehyde 2 as a mechanism-based crosslinker, a set of peptide substrate derivatives with and without an engineered cysteine (biotin-ZRPRTSSF-OH 3, fluorescein-ZZRPRTSSF-OH 4, biotin-ZRPRTSCF-OH 5 and fluorescein-ZZRPRTSCF—OH 6) were incubated with the kinase, AKT1 (Alessi et al., FEBS Lett. 399: 333-338 (1996)). […] As expected, the peptide-AKT1 covalent complex runs at a slightly higher molecular weight than unmodified AKT1 on SDS-PAGE.

T2 sequence (P31749 whole entry): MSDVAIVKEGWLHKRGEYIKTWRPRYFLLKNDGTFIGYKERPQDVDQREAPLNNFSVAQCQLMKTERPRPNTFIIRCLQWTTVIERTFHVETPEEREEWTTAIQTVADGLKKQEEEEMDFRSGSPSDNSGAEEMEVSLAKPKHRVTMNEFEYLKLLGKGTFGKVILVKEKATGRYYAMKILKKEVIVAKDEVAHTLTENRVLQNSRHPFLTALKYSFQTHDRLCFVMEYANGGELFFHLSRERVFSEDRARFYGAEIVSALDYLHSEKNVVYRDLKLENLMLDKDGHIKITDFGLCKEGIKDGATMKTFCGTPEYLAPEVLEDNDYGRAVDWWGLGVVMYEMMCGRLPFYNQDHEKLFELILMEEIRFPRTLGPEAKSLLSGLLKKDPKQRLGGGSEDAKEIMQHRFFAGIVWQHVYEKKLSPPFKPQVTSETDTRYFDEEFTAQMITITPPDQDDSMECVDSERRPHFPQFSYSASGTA
T1 sequence (P31749 whole entry): as above

On to “Biotin-PEG-RPRTSSF-OH [reference compound]”, for which the “anti-AKT signal after avidin-agarose pull-down of the biotinylated substrate” value in assay [1] was “No signal”.
{Biotin-Ahx}-RPRTSCF-OH [peptide 5]: the “crosslinking of peptide to AKT1 (formation of the peptide-AKT1 complex)” value in assay [2] is “rapid formation of the peptide-AKT1 complex was observed”.
With “{Biotin-Ahx}-RPRTSSF-OH [peptide 3, reference compound]”, the “crosslinking of peptide to AKT1 (formation of the peptide-AKT1 complex)” value in assay [2] was “no detectable crosslinking”.
Same read-out and setting: the same measure for “Fluorescein-Ahx-Ahx-Arg-Pro-Arg-Thr-Ser-Cys-Phe-OH ({fluorescein-Ahx-Ahx}-RPRTSCF-OH) [peptide 6]”: “identical results”.
On to Biotin-PEG-RPRTSCF-OH, for which, in assay [1], the “anti-AKT signal after avidin-agarose pull-down of the biotinylated substrate” value was “positive signal”.
On to `Nc1ncnc2c1ncn2C1OC(COC(=O)c2ccc(C=O)c(C=O)c2)C(O)C1O` (stereo not shown) [dialdehyde 2], for which, in assay [2] (dialdehyde 2 incubated with cysteine-containing peptide 5 and AKT1, FIG. 2A lane 2), the “crosslinking of AKT1 and peptide by the crosslinker (formation of the peptide-AKT1 complex)” value is “rapid formation of the peptide-AKT1 complex was observed”. The “anti-AKT signal after crosslinking in cell lysate by the crosslinker” value in assay [1] (100 μM crosslinker 2 with 1 μM Biotin-PEG-RPRTSCF-OH, 90 minutes) was “positive signal”.
